Measured values published in patent US20240299318A1, “AMISELIMOD FOR PREVENTING, TREATING OR AMELIORATING ULCERATIVE COLITIS” (Bausch Health Ireland Limited, priority 2021, published 2024).
Read-outs that look alike come from different tables or passages of the source.

Tests used:
healthy subjects = experiment: Phase 1 randomized, double-blind, placebo-controlled safety study, upwardly titrated amiselimod; format: in vivo, human; conditions: for discontinuation rate: safety population, 95 subjects per group
Protocol: The safety of amiselimod in healthy subjects was evaluated in a Phase 1 randomized, double-blind, placebo-controlled study where the dose of amiselimod was upwardly titrated.
A randomized, double-blind, multiple-dose, placebo-controlled, parallel study with a nested crossover design evaluated the safety and tolerability profile of amiselimod. Healthy adults were randomized in a 2:1:1 ratio during a 28-day treatment period accordingly: a single dose of placebo followed by oral amiselimod (upwardly titrated in doses ranging from 0.4 to 1.6 mg to achieve steady-state concentrations); a single dose of oral moxifloxacin 400 mg followed by placebo; or placebo followed by a single dose of moxifloxacin 400 mg (for the safety analysis, moxifloxacin arms were combined). The safety population included all subjects who received at least one dose of treatment. Adverse events (AE) and serious AEs were collected. Treatment-emergent AEs were defined as an AE that was starting or worsening at the time of or after study drug administration. Changes in clinical laboratory parameters (including lymphocyte counts), physical examinations, vital signs, and electrocardiogram parameters (including heart rate, PR, QRS, and QT intervals) were recorded. Subjects were permitted to withdraw if lymphocyte counts were ≤0.2×10^9/L.

[1] = half-life and accumulation to steady state; format: in vivo, humans; conditions: for half-life: in humans; for period of accumulation to steady state: inferred from long half-life
[2] = study of amiselimod 0.4 mg QD: steady state, AUC, Cmax, lymphocyte counts; format: in vivo; conditions: for increase of steady-state AUC on day 13 compared with day 1 / increase of steady-state Cmax on day 13 compared with day 1: amiselimod 0.4 mg QD
Protocol: Amiselimod has a half-life of about 400 hours. For example, amiselimod has a terminal half-life that is about 20 times longer than etrasimod, which has a half-life of about 17-20 hours. In a study, a daily dose of amiselimod achieved a therapeutic steady state after 14 days of 0.4 mg QD administration. On day 13, the steady-state AUC and Cmax for amiselimod 0.4 mg QD increased by 10-fold for amiselimod and by 4-fold for amiselimod-P compared with day 1. This increase in AUC and Cmax correlated with gradual decrease in absolute lymphocyte counts. The reduction in lymphocyte counts was maintained after amiselimod discontinuation, indicating a persistent therapeutic amiselimod AUC owing in part to the associated half-life. Accordingly, amiselimod may be administered in accordance with the methods described herein less frequently than once daily to achieve the desired treatment such, as for example, maintenance of Ulcerative Colitis. In some embodiments, the second dose may be administered during the second administration period (e.g., the maintenance dose phase) QD, BID, TID, or QID every other day during the second administration period or every two days during the second administration period or every three days during the second administration period or every four days during the second administration period or every five days during the second administration period or every six days during the second administration period or every seven days during the second administration period.

[3] = comparator etrasimod; cited from earlier work
human S1P1 receptor = human S1P1 receptor (Homo sapiens, UniProt P21453); experiment: agonistic activity at human S1P1 receptor; format: biochemical; conditions: compared with S1P4 and S1P5
Sequence of human S1P1 receptor (P21453 whole entry): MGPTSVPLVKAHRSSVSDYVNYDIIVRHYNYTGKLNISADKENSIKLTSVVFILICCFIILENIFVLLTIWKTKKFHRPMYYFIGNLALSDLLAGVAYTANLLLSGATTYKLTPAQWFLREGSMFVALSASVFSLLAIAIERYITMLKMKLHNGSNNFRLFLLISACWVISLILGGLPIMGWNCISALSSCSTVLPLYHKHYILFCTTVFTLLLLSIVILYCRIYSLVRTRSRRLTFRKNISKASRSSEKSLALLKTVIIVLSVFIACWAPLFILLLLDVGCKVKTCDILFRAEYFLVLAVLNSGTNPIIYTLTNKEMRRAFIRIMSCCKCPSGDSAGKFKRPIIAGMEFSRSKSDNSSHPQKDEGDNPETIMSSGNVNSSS

human S1P4 receptor = target: T1, human S1P4 receptor (Homo sapiens, UniProt O95977); experiment: agonistic activity at human S1P4 receptor; format: biochemical; conditions: less potent than at human S1P1 receptor
T1 sequence (O95977 1-384): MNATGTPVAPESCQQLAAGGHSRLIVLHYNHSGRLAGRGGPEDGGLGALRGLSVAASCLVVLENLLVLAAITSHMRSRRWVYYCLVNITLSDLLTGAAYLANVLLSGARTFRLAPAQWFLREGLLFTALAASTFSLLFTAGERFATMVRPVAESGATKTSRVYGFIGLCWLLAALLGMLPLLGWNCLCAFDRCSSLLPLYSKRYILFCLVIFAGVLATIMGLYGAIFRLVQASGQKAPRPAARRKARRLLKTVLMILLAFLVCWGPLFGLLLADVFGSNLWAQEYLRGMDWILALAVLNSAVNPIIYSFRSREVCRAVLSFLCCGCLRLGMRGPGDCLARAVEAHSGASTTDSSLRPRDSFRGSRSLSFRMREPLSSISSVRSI

human S1Ps receptor = human S1Ps receptor (Homo sapiens, UniProt Q9H228); experiment: agonistic activity at human S1Ps receptor; format: biochemical; conditions: less potent than at human S1P1 receptor
Sequence of human S1Ps receptor (Q9H228 whole entry): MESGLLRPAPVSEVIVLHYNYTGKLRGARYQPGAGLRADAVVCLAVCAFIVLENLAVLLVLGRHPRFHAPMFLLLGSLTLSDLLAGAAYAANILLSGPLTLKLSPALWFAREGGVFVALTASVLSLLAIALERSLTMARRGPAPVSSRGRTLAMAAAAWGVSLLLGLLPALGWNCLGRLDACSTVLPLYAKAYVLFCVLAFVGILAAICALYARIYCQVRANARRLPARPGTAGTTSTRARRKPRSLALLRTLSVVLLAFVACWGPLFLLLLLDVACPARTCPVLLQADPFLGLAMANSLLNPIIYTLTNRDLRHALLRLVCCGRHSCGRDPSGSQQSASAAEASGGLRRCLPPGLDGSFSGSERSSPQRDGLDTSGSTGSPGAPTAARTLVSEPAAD

human S1P2 receptor = human S1P2 receptor (Homo sapiens, UniProt O95136); experiment: agonistic activity at human S1P2 receptor; format: biochemical
Sequence of human S1P2 receptor (O95136 whole entry): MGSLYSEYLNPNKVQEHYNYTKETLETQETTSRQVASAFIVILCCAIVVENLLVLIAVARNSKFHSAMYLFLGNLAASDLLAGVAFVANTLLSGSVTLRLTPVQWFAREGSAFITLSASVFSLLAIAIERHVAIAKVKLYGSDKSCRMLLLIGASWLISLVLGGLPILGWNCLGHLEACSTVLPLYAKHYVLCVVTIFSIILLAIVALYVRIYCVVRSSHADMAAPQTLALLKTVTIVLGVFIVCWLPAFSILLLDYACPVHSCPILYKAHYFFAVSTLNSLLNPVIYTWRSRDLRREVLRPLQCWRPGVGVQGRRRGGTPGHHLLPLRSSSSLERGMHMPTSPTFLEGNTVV

S1P3 receptor = S1P3 receptor (Homo sapiens, UniProt Q99500); experiment: agonistic activity at S1P3 receptor; format: biochemical
Sequence of S1P3 receptor (Q99500 whole entry): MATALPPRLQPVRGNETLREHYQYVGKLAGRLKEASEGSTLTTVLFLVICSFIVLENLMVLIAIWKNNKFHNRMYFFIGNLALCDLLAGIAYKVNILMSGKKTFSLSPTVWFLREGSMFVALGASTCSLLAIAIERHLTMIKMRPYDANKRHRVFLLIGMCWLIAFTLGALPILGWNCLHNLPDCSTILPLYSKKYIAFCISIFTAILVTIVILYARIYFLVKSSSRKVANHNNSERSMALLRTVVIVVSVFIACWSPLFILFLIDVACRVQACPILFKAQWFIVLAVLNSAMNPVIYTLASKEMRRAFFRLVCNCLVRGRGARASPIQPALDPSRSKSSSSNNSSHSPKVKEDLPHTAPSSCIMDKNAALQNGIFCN

[4] = tested on: peripheral blood lymphocytes (PBLs); experiment: reduction of peripheral blood lymphocytes after oral dose, mice; format: in vivo; conditions: oral dose of 0.1 mg/kg or higher
[5] = tested on: peripheral blood lymphocytes (PBLs); experiment: reduction of peripheral blood lymphocytes after oral dose, rats; format: in vivo; conditions: oral dose of 0.1 mg/kg or higher
[6] = tested on: peripheral blood lymphocytes (PBLs); experiment: reduction of peripheral blood lymphocytes after oral dose, cynomolgus monkeys; format: in vivo; conditions: oral dose of 0.1 mg/kg or higher
[7] = tested on: colitis in the adoptive transfer of CD4+CD45RBhigh T cells; experiment: colitis in the adoptive transfer of CD4+CD45RBhigh T cells in SCID mice; format: in vivo; conditions: oral administration
heart rate = experiment: negative chronotropic activity; conditions: in vivo
Excerpt: Chronotropic effects in the heart can include changes in the heart rate or rhythm. Negative chronotropic effects are those that result in a decreased heart rate and include bradyarrhythmia (bradycardia).

Structure (SMILES): COc1c(N2C[C@@H]3CCCN[C@@H]3C2)c(F)cc2c(=O)c(C(=O)O)cn(C3CC3)c12 [Moxifloxacin, moxifloxacin, reference compound]
- Constipation (healthy subjects; Days 1-26, n = 95): 11 (12) n (%)
- Dizziness (healthy subjects; Days 1-26, n = 95): 1 (1) n (%)
- Headache (healthy subjects; Days 1-26, n = 95): 12 (13) n (%)
- Number of subjects with an adverse event (healthy subjects; Days 1-26, n = 95): 49 (52) n (%)
- Upper respiratory tract infection (healthy subjects; Days 1-26, n = 95): 1 (1) n (%)
- White blood cell count decreased (healthy subjects; Days 1-26, n = 95): 0 n (%)
- Constipation (healthy subjects; Days 27+, n = 46): 0 n (%)
- Dizziness (healthy subjects; Days 27+, n = 46): 1 (2) n (%)
- Headache (healthy subjects; Days 27+, n = 46): 0 n (%)
- Number of subjects with an adverse event (healthy subjects; Days 27+, n = 46): 7 (15) n (%)
- Upper respiratory tract infection (healthy subjects; Days 27+, n = 46): 0 n (%)
- White blood cell count decreased (healthy subjects; Days 27+, n = 46): 0 n (%)
- discontinuation rate (healthy subjects): 4%

Structure (SMILES): CCCCCCCOc1ccc(CC[C@@](N)(CO)COP(=O)(O)O)cc1C(F)(F)F [MT-1303-P]
- half-life [1]: approximately 400 hours
- period of accumulation to steady state [1]: about 10 weeks
- increase of steady-state AUC on day 13 compared with day 1 [2]: 4 fold
- increase of steady-state Cmax on day 13 compared with day 1 [2]: 4 fold

Structure (SMILES): O=C(O)C[C@H]1CCc2c1[nH]c1ccc(OCc3ccc(C4CCCC4)c(C(F)(F)F)c3)cc21 [etrasimod]
- half-life [3]: 0.708 to 0.833 days

Structure (SMILES): CCCCCCCOc1ccc(CCC(N)(CO)COP(=O)(O)O)cc1C(F)(F)F (stereo in doubt) [(S)-MT-1303-P]
- agonistic activity at human S1P1 receptor (human S1P1 receptor): more potently than at human S1P4 receptor and human S1Ps receptor
- agonistic activity at human S1P4 receptor (human S1P4 receptor): agonistic activity
- agonistic activity at human S1Ps receptor (human S1Ps receptor): agonistic activity
- agonistic activity at human S1P2 receptor (human S1P2 receptor): no agonistic activity
- agonistic activity at S1P3 receptor (S1P3 receptor): no agonistic activity

Structure (SMILES): CCCCCCCOc1ccc(CCC(N)(CO)CO)cc1C(F)(F)F [amiselimod]
- half-life ([1]; human, in vivo, read-out: half-life (converted)): ~16.7 days
- half-life [1]: approximately 400 hours
- period of accumulation to steady state [1]: about 10 weeks
- terminal half-life relative to etrasimod ([1]; longer than etrasimod): about 20 times
- number of peripheral blood lymphocytes (PBLs) [4]: significantly reduced
- number of peripheral blood lymphocytes (PBLs) [5]: significantly reduced
- number of peripheral blood lymphocytes (PBLs) [6]: significantly reduced
- colitis [7]: reduced colitis
- effect on colitis compared with murine anti-TNF-α antibody [7]: comparable to that of a murine anti-tumor necrosis factor-α (TNF-α) antibody
- negative chronotropic activity (heart rate): lack of negative chronotropic activity
- time to therapeutic steady state ([2]; 0.4 mg QD administration): 14 days
- reduction in lymphocyte counts after discontinuation ([2]; after amiselimod discontinuation): maintained
- increase of steady-state AUC on day 13 compared with day 1 [2]: 10 fold
- increase of steady-state Cmax on day 13 compared with day 1 [2]: 10 fold
- Constipation (healthy subjects; Days 1-13, n = 95): 8 (8) n (%)
- Dizziness (healthy subjects; Days 1-13, n = 95): 5 (5) n (%)
- Headache (healthy subjects; Days 1-13, n = 95): 4 (4) n (%)
- Number of subjects with an adverse event (healthy subjects; Days 1-13, n = 95): 55 (58) n (%)
- Upper respiratory tract infection (healthy subjects; Days 1-13, n = 95): 1 (1) n (%)
- White blood cell count decreased (healthy subjects; Days 1-13, n = 95): 18 (19) n (%)
- Constipation (healthy subjects; Days 14+, n = 92): 6 (7) n (%)
- Dizziness (healthy subjects; Days 14+, n = 92): 6 (7) n (%)
- Headache (healthy subjects; Days 14+, n = 92): 11 (12) n (%)
- Number of subjects with an adverse event (healthy subjects; Days 14+, n = 92): 57 (62) n (%)
- Upper respiratory tract infection (healthy subjects; Days 14+, n = 92): 6 (7) n (%)
- White blood cell count decreased (healthy subjects; Days 14+, n = 92): 13 (14) n (%)
- amiselimod-related serious AE of atrial fibrillation (healthy subjects; day 26, after amiselimod 1.6 mg for 3 of the preceding 4 days): One subject
- mean absolute lymphocyte count, nadir (healthy subjects; day 27): 0.424 thou/μL
- changes to vital signs, physical examinations, and ECG parameters (healthy subjects; in vivo): within normal limits
- tolerability (healthy subjects; multiple, upwardly titrated doses, healthy subjects): generally well tolerated
- mean absolute lymphocyte count (healthy subjects; predose): 1.681 thou/μL
- discontinuation rate (healthy subjects): 8%
